Values quoted from earlier work, collected in patent US20050070524A1, “Compositions of a cyclooxygenase-2 selective inhibitor and an anticonvulsant agent for the treatment of central nervous system disorders” (Pharmacia Corporation, priority 2003, published 2005).

Columns and labels:
[1] = test system: high-voltage-activated Ca^2+ currents; conditions: rat cortical neurons
[2] = test system: high-voltage-activated Ca^2+ channels; conditions: isolated CA1 hippocampal neurons of rats

Compound	inhibition of high-voltage-activated Ca^2+ currents [1]	inhibition of high-voltage-activated Ca^2+ channels [2]
Nc1nnc(-c2cccc(Cl)c2Cl)c(N)n1 [lamotrigine]	large dose-dependent inhibition	
CC[C@@H](C(N)=O)N1CCCC1=O [levetiracetam]		directly and irreversibly inhibited
